Assay results as given in paper PMC4433267, “Corosolic Acid Inhibits Hepatocellular Carcinoma Cell Migration by Targeting the VEGFR2/Src/FAK Pathway” (PLoS ONE, 2015).

Molecular target: VEGFR2 (KDR) (Homo sapiens, UniProt P35968)
Assay: ADP-Glo kinase assay with purified KDR (Promega V2681), […] ATP
Format: biochemical

Sequence of VEGFR2 (KDR) (P35968 20-1356): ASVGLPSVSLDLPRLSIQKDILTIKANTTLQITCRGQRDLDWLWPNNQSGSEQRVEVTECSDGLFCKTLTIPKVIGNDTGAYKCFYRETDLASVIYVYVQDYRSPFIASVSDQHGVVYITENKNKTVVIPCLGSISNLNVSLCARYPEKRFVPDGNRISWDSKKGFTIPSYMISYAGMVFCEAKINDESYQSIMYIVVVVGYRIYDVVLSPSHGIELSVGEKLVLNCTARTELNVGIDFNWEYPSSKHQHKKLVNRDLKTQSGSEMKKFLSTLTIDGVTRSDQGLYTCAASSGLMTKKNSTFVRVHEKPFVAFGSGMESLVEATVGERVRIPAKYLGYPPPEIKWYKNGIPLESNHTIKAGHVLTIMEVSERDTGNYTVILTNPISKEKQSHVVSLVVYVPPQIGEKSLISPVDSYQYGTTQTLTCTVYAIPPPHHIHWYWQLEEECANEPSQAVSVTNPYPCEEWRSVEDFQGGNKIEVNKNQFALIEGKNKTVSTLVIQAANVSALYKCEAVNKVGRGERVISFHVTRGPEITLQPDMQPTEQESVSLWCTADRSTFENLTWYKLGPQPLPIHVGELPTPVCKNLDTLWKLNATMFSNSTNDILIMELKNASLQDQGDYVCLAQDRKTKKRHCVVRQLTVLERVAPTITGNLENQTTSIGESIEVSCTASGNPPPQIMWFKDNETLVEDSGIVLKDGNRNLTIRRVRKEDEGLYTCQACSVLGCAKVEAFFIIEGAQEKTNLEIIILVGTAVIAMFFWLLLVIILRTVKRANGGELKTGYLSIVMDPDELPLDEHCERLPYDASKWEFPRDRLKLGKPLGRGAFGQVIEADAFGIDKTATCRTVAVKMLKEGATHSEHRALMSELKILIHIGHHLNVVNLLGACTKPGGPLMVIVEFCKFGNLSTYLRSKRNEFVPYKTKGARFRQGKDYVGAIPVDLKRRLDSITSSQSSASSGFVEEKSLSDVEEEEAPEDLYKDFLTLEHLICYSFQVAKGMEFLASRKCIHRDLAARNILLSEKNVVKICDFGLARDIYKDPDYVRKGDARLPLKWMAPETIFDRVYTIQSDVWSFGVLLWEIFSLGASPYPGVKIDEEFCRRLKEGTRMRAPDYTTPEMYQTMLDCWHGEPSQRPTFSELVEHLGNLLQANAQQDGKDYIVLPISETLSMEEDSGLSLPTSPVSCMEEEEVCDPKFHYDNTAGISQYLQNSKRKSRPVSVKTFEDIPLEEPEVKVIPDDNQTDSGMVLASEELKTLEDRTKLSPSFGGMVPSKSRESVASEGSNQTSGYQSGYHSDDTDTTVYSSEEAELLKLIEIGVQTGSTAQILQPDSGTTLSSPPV

SMILES: C[C@H]1[C@H](C)CC[C@]2(C(=O)O)CC[C@]3(C)C(=CC[C@@H]4[C@@]5(C)C[C@@H](O)[C@H](O)C(C)(C)[C@@H]5CC[C@]43C)[C@H]12 [CA, corosolic acid]
- IC50: 950 nM
